Consider eleven molecules from patent US9844550B2, “Phtalazinone derivatives and manufacturing process thereof” (ILDONG PHARM CO., LTD., priority 2013, dated 2017).

Data set [1] relates to MDA-MB-436 breast cancer cell line. Description: Cell viability assay (MDA-MB-436). The format is cell-based. The conditions noted are these: Homo sapiens, 144 h; MDA-MB-436 cells, treated 6 days. The gist of the method: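 MDA-MB-436 breast cancer cells in DMEM/F12 with 10% FBS, treated 24 h after seeding with graded compound concentrations for 6 days at 37 °C, 5% CO2, medium changed every 3 days. Viability read with a fluorescence reagent; IC50 derived.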

The test system of data set [2] is Capan-1 pancreatic cancer cell line. Description: Cell viability assay (Capan-1). The format is cell-based. The following applies: Homo sapiens, 240 h; Capan-1 cells, treated 10 days. On the procedure:
3. Cell Viability Assay (Capan-1)
Cell viability assay was performed by using Capan-1 cell line to measure cytotoxicity of compounds in the present invention. Capan-1 pancreatic cancer cell line was seeded into 96-well plates at 37° C. under 5% CO2 atmosphere using IMDM (Sigma) containing 10% FBS (Hyclone). After 24 hr incubation, cells were treated with the invented compounds at various concentrations for 10 days. After 7-day incubation, the medium was changed. 10 days later, A fluorescence reagent was used to determine the IC50 values.

For data set [3], the system named is LNCaP prostate cancer cell line. Kind of data set: Cell viability assay (LNCaP). The data set is classed as cell-based. The conditions noted are these: Homo sapiens, 264 h; LNCaP cells, treated 11 days. On the procedure:
4. Cell Viability Assay (LNCaP)
Cell viability assay was performed by using LNCaP cell line to measure cytotoxicity of compounds in the present invention. LNCaP prostate cancer cell line was seeded into 96-well plates at 37° C. under 5% CO2 atmosphere using RPMI-1640 (Hyclone) containing 10% FBS (Hyclone). After 24 hr incubation, cells were treated with the invented compounds at various concentrations for 11 days. The medium was changed every 3 to 4 day. 11 days later, A fluorescence reagent was used to determine the IC50 values.

The target of data set [4] is T1, Tankyrase-1 (Homo sapiens, UniProt O95271).
T1 sequence (O95271 1-1327): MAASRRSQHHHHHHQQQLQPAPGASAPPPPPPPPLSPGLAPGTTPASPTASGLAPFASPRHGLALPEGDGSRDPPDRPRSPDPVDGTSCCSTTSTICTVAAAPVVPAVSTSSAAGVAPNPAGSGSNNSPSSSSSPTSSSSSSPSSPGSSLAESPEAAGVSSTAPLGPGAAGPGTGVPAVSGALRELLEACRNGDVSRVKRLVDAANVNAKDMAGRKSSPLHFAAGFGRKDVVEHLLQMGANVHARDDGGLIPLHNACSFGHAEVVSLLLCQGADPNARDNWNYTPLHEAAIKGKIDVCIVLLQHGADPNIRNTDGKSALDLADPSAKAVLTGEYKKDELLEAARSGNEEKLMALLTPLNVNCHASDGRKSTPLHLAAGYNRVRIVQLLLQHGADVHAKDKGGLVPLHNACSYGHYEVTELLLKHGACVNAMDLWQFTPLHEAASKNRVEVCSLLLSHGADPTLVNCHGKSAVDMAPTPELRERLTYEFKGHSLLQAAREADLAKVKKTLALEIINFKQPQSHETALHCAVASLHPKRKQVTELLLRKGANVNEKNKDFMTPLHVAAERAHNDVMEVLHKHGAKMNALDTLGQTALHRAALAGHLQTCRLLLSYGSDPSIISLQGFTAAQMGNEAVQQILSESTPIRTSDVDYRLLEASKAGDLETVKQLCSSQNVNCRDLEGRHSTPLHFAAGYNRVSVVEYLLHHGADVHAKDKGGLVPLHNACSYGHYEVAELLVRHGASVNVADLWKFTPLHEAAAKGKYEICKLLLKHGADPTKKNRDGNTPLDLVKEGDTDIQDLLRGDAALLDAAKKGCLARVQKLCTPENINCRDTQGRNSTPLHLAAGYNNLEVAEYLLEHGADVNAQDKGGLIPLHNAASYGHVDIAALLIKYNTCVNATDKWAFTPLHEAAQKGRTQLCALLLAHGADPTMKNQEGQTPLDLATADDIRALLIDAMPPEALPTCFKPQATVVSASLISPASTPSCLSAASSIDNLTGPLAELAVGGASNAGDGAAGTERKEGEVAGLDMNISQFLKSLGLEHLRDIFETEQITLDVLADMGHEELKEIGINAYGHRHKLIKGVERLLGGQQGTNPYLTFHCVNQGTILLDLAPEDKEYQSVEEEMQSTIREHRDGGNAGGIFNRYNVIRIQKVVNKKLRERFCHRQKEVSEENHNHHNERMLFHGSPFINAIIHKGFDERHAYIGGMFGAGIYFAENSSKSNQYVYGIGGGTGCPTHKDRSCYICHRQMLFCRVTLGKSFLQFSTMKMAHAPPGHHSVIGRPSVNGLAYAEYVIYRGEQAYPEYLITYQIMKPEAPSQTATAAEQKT
Description: Tankyrase-1 enzyme assay. The format is biochemical. The following applies: 1 hr at room temperature, chemiluminescent readout. On the procedure: 5. Tankyrase-1 Enzyme Assay
Tankyrase-1 enzyme assay was performed to determine Tankyrase-1 inhibitory activity of compounds in the present invention. The enzymatic reaction was conducted by coating the plate with substrates of tankyrase-1, and then the plate was washed. Compounds in the present invention serially diluted in DMSO were added to the reaction buffer activating tankyrase-1, and incubated for 1 hr at room temperature. After stopping the reaction, the plate was washed, and streptavidin-HRP was added to each well. IC50 was calculated by adding chemiluminescent substrate and immediately reading the sample in a microplate reader (Biotek).

A short description of data set [5]: Mouse pharmacokinetics. The data set is classed as in vivo. More on the design: concentration or dose not given beside the values. The conditions noted are these: Balb/c male mice, blood samples 15 to 1140 min, LC-MS/MS. On the procedure: To evaluate the pharmacokinetics test, the invented compounds (from I-25 to I-1171) were determined as follows. Blood samples are collected at 15, 30, 60, 120, 240, 480, 1140 min. Quantification is by using a LC-MS/MS method specific to the selected compound. Pharmacokinetics parameters are calculated using WinNonLinnon compartmental analysis software.

Data set [6] is described as follows: Solubility test in water. The format is physicochemical. The following applies: 25° C., atmospheric pressure. On the procedure:
To evaluate the solubility, the invented compounds (I-159, I-161 and I-171) was determined as follows. The compounds was dissolve in water (1 mL, 10 mL and 100 mL) at 25° C. under an atmospheric pressure.

The subject of data set [7] is Capan-1 Human pancreatic cancer cells. Kind of data set: In vivo antitumoral efficacy, Capan-1 subcutaneous xenograft. The conditions noted are these: Capan-1 xenograft in Balb/c nude mice. On the procedure:
To evaluate the in vivo antitumoral efficacy, the invented compounds (I-80˜171) was determined as a result to follows.
Capan-1 Human pancreatic cancer cells were established as subcutaneous xenografts by injection of 8×10^6 cells into the flanks of adult female Balb/c nude mice. Mice with established tumors (160-250 mm^3) were selected for study (n=6/treatment group). The test compounds were formulated in DW and administered orally (po) at a dose of 30˜200 mg/kg. The vehicle alone was administered to control groups. Animals were dosed 5 days per week (Monday through Friday) for 3 consecutive weeks.
Animals were weighed and tumor size was determined twice weekly by caliper measurements, and tumor volumes were calculated (volume=[…] (mm^3), where l and w refer to the larger and smaller dimensions collected at each measurement). The mean tumor volumes of each group were calculated. The change in mean treated tumor volume was divided by the change in mean control tumor volume, multiplied by 100 and subtracted from 100% to give the tumor growth inhibition for each group.

Consider `O=C(c1cc(Cc2n[nH]c(=O)c3ccccc23)ccc1F)N1CC(NC2CCCC2)C1` [Compound I-27, 4-(3-(3-(cyclopentylamino)azetidine-1-carbonyl)-4-fluorobenzyl)phthalazin-1(2H)-one], for which the concentration for half-maximal inhibition (IC50) was not above 5 nM in data set [1], 50 to 300 nM in data set [2], 50 to 300 nM in data set [3] and more than 1000 nM in data set [4]. In addition, the AUC in data set [5] was 472 ng·h/mL.

In the case of `CC(C)NC1CN(C(=O)c2cc(Cc3n[nH]c(=O)c4ccccc34)ccc2F)C1` [Compound I-32, 4-(4-fluoro-3-(3-(isopropylamino)azetidine-1-carbonyl)benzyl)phthalazin-1(2H)-one], the concentration for half-maximal inhibition (IC50) in data set [1] was not above 5 nM; in data set [2], 50 to 300 nM; in data set [3], 50 to 300 nM; in data set [4], more than 1000 nM.

Take `O=C(c1cc(Cc2n[nH]c(=O)c3ccccc23)ccc1F)N1CC(NCC2CC2)C1` [Compound I-33, 4-(3-(3-((cyclopropylmethyl)amino)azetidine-1-carbonyl)-4-fluorobenzyl)phthalazin-1(2H)-one]: the half-maximal inhibitory concentration (IC50) in data set [1] was not above 5 nM; in data set [2] it was 300 to 1000 nM; in data set [3], 300 to 1000 nM; in data set [4], more than 1000 nM. The molecule further had an AUC in data set [5] of 1020 ng·h/mL.

Regarding `N#CC1(NC2CN(C(=O)c3cc(Cc4n[nH]c(=O)c5ccccc45)ccc3F)C2)CCC1` [Compound I-99, 1-((1-(2-fluoro-5-((4-oxo-3,4-dihydrophthalazin-1-yl)methyl)benzoyl)azetidin-3-yl)amino)cyclobutanecarbonitrile], the IC50 in data set [1] was 5 to 50 nM; in data set [2], 300 to 1000 nM; in data set [3], 300 to 1000 nM; in data set [4] it was 300 to 1000 nM. The molecule further gave an AUC in data set [5] of 586 ng·h/mL.

On to `O=C(c1cc(Cc2n[nH]c(=O)c3ccccc23)ccc1F)N1CC(Nc2ccc(Cl)nn2)C1` [Compound I-114, 4-(3-(3-((6-chloropyridazin-3-yl)amino)azetidine-1-carbonyl)-4-fluorobenzyl)phthalazin-1(2H)-one], for which the figures for the IC50 in data set [1], in data set [3] and in data set [4] were 300 to 1000 nM, 5 to 50 nM and more than 1000 nM, respectively.

As for `O=C(c1cc(Cc2n[nH]c(=O)c3ccccc23)ccc1F)N1CC[C@@H](Nc2ncc(Br)cn2)C1` [Compound I-130, (R)-4-(3-(3-((5-bromopyrimidin-2-yl)amino)pyrrolidine-1-carbonyl)-4-fluorobenzyl)phthalazin-1(2H)-one], the IC50 was not above 5 nM in data set [1] and 50 to 300 nM in data set [4].

In the case of `CC(C)(C)NCC1CN(C(=O)c2cc(Cc3n[nH]c(=O)c4ccccc34)ccc2F)C1` [Compound I-147, 4-(3-(3-((tert-butylamino)methyl)azetidine-1-carbonyl)-4-fluorobenzyl)phthalazin-1(2H)-one], the IC50 is 300 to 1000 nM in data set [1] and more than 1000 nM in data set [4].

Turning to `O=C(c1cc(Cc2n[nH]c(=O)c3ccccc23)ccc1F)N1CC(CNc2ccccc2)C1` [Compound I-150, 4-(4-fluoro-3-(3-((phenylamino)methyl)azetidine-1-carbonyl)benzyl)phthalazin-1(2H)-one], the IC50 was 50 to 300 nM in data set [1] and more than 1000 nM in data set [4].

In the case of `CC(C)NC1CN(C(=O)c2cc(Cc3n[nH]c(=O)c4ccccc34)ccc2F)C1.Cl` [Compound I-159, 4-(4-fluoro-3-(3-(isopropylamino)azetidine-1-carbonyl)benzyl)phthalazin-1(2H)-one hydrochloride], the “Solubility class in words” value in data set [6] is on record as “Sparingly soluble”. Moreover, the “% TGI” value was found to be 59.4% in data set [7] (100 mg/kg po qd x 5, 3 consecutive weeks) and 69.4% in data set [7] (200 mg/kg po qd x 5, 3 consecutive weeks). This molecule also showed an AUC in data set [5] of 472 ng·h/mL.

`CC(C)CNC1CN(C(=O)c2cc(Cc3n[nH]c(=O)c4ccccc34)ccc2F)C1.Cl` [Compound I-161, 4-(4-fluoro-3-(3-(isobutylamino)azetidine-1-carbonyl)benzyl)phthalazin-1(2H)-one hydrochloride]: the “Solubility class in words” value in data set [6] was “Sparingly soluble”. The molecule further gave an AUC in data set [5] of 1020 ng·h/mL.

Take `Cl.O=C(c1cc(Cc2n[nH]c(=O)c3ccccc23)ccc1F)N1CC(CNC2CC2)C1` [Compound I-171, 4-(3-(3-((cyclopropylamino)methyl)azetidine-1-carbonyl)-4-fluorobenzyl)phthalazin-1(2H)-one hydrochloride]: the “Solubility class in words” value in data set [6] was “Sparingly soluble”. Moreover, the “% TGI” value in data set [7] (30 mg/kg po qd x 5, 3 consecutive weeks) is 42.1%; in data set [7] (60 mg/kg po qd x 5, 3 consecutive weeks) it was 69.7%. Further, the exposure (AUC) in data set [5] is 673 ng·h/mL.

Broadly, the IC50 is the midpoint of a concentration-inhibition curve. By AUC is commonly meant concentration integrated over time.
